How the values were obtained:
Format in all cases: cell-based, human
HL-60 cells [1] = assay: APE expression on cytospun cells, rhodamine-labeled anti-APE staining; settings: for % rhodamine positive (APE): HL-60 + DMSO
Procedure: (§1) To determine if the cells undergoing apoptosis were also the cells downregulating APE, double labeling experiments were performed on a 50:50 mix of untreated and RA treated (6 days, 10^−5 M) HL-60 cells (FIG. 9A). Cytocentrifuge preparations were stained for 1) fragmented DNA using fluorescein-dUTP in the TUNEL assay (FIG. 9C) and 2) APE using polyclonal rabbit anti-APE with a rhodamine labeled goat anti-rabbit secondary antibody (FIG. 9B). Cells undergoing apoptosis fluoresce ‘green’ and cells expressing APE fluoresce ‘red’. […] Conversely, TUNEL negative cells, not undergoing apoptosis, stained strongly positive for APE. Thus, HL-60 cells undergoing apoptosis appear to lose expression of APE.
(§2) The inventor further characterized the temporal decline in APE expression to see if it was an early event in programmed cell death or if the decline coincided with fragmentation of DNA (TUNEL assay); the inventor assayed APE expression and DNA fragmentation on cytospun preparations of cells after exposure to DMSO. The expression of APE started to fall with fewer rhodamine positive cells after 2 days of DMSO while statistically significant evidence of fragmented DNA was not apparent until after 4-6 days (Table 7, FIG. 8). A similar pattern was observed, but not as rapid a loss of APE expression, after exposure to RA or PMA. Thus the decrease in APE expression associated with programmed cell death appears to be an early event occurring before the final pathologic consequences of DNA fragmentation in apoptosis.

HL-60 cells [2] = assay: DNA fragmentation / apoptosis, fluorescein TUNEL assay; settings: for % fluorescein positive (TUNEL): HL-60 + DMSO
Source text: Over-expression of bcl-2 depresses the baseline apoptosis to less than 1% (FIG. 8). […] The high level expression of bcl-2 in HL-60-bcl-2 cells appears to be responsible for not only the block in apoptosis (Park et al., 1994), but also the failure to downregulate expression of APE with induction of differentiation. […] This leads to the conclusion that the decrease in expression of APE observed on Northern and Western blot (FIG. 6) in induced HL-60 cells is associated with programmed cell death.
as §1, §2

HL-60 cells [3] = assay: Western blot of APE protein expression after differentiation induction
Procedure: (§3) FIG. 6A and FIG. 6B: Expression of APE in HL-60 cells. FIG. 6A, HL-60 cells at 0, 2, 4, and 6 days after treatment with 10^−5 M RA or 1.25% DMSO, Western blot (top) probed with an affinity purified polyclonal rabbit anti-APE antibody which detects the 37,000 Daltons human APE. Northern blots (middle and bottom) probed for the 1.6 Kb APE mRNA and GAPDH transcripts. FIG. 6B, HL-60 cells treated with 100 nM PMA.
Western blot analysis was performed as has been previously described (Wilson et al., 1994; 1995, FIG. 16). Whole cell extracts were electrophoresed on a 12% SDS-PAGE and electroblotted onto 0.2 micron nitrocellulose. The filter was incubated in blocking buffer which contains 5% non-fat milk for 1 hour. Next, the antibody (affinity purified APE) was diluted to the appropriate concentration (1:100) and incubated with the filter overnight at 4° C. The filter was washed in 1×TBST and incubated in TBST containing 5% milk and cross-reacting proteins were detected using the Chemiluminescence Western Blotting Kit from Boehringer-Mannheim (Indianapolis, Ind.) as directed. Western blot analysis of HeLa cell (human) or NIH3T3 (mouse) cells using antibody produced in rabbits or chickens are shown in FIG. 16. The antibodies were affinity purified and only a single cross-reacting protein is visible in the human or mouse cells. […]

HL-60 cells [4] = assay: Northern blot of APE transcript after differentiation induction
Procedure: as §3
To investigate possible changes in expression of the DNA repair enzyme APE in differenntiating myeloid cells, the inventor utilized Northern and Western blot analysis with the HL-60 myeloid leukemia cell line, which can be induced to terminally differentiate into mature granulocytes or monocyte/macrophage (Collins, 1987). […] To determine whether the decrease in APE expression was confined to granulocytic differentiation, HL-60 cells were induced down the monocyte/macrophage pathway with PMA.

HL-60-bcl-2 cells [5] = assay: Western blot of APE protein expression after differentiation induction; settings: 10^-5 M RA, 1.25% DMSO or 100 nM PMA, compared to parental HL-60
Procedure: (§4) FIG. 7A and FIG. 7B: Expression of APE in HL-60-bcl-2 cells. FIG. 7A, HL-60-bcl-2 cells at 0, 2, 4, and 6 days after treatment with 10^−5 M RA or 1.25% DMSO, Western blot (top) probed with an affinity purified polyclonal rabbit anti-APE antibody. Northern blots (middle and bottom) probed for the 1.6 Kb APE and GAPDH transcripts. FIG. 7B, HL-60-bcl-2 cells treated with 100 nM PMA.
(§5) To ascertain whether APE expression was associated with differentiation or programmed cell death, the inventor blocked apoptosis by over-expression of the proto-oncogene bcl-2 using HL-60 cells transduced with the retroviral construct LbcI2SN (Park et al, 1994). […] The apparent decrease in APE transcript expression after 6 days exposure to RA or DMSO results from loading differences as evidenced by the GAPDH Northern control blot (FIG. 7). […] Thus constitutive expression of bcl-2 inhibits the decrease in APE expression as well as programmed cell death normally observed with granulocytic or monocytic/macrophage induced differentiation of HL-60 cells.

HL-60-bcl-2 cells [6] = assay: Northern blot of APE mRNA after differentiation induction; settings: 10^-5 M RA, 1.25% DMSO or 100 nM PMA
Procedure: as §4, §5

HL-60 cells [7] = assay: RA-induced differentiation (morphology, CD11b, NBT reduction)
HL-60-bcl-2 cells [8] = assay: as above
HL-60-bcl-2 cells [9] = assay: Viability of RA-induced granulocytes (trypan blue dye exclusion); settings: HL-60+Lbcl2SN cells treated with RA, compared to parental HL-60 cells
Procedure: FIG. 10A and FIG. 10B: Enhanced viability of HL-60-bcl-2 granulocytes. HL60 and HL-60-bcl-2 cells were induced with RA (1 μmol/L) which was added at day 0. At the indicated days after RA treatment (FIG. 10A), cell number was determined using a hemocytometer chamber and (FIG. 10B) percentage of cell viability was determined by trypan blue dye exclusion. The indicated points represent the mean of triplicate experiments (▴) HL-60 wt; (◯) HL-60 Bcl2.
To determine whether cell differentiation and apoptosis were closely linked processes that could not be separated, the inventor over expressed the proto-oncogene bcl-2 in HL-60 cells to block apoptosis the 1.9 kB cDNA of bcl-2 was subcloned into the retroviral vector LXSN to produce Lbcl2SN. The ecotropic packaging cell line PE501 was transfected and used to transduce the amphotropic packaging cell line PA317. High titer clones of PA317+Lbcl2SN were selected for transduction of HL-60 cells to produce HL-60+Lbcl2SN. Several clones were screened by Northern blot analysis and one clone with high bcl-2 expression was chosen for study. […] These cells were assayed for programmed cell death using the TUNEL reaction to score individual cells and the diphenylamine assay to determine the total amount of DNA undergoing fragmentation. […] Thus myeloid cell differentiation and apoptosis are independent processes that can be separated.

[10] = after 1 hour of TPA stimulation
[11] = arbitrary log scale 0 to 200, 18.5 U = doubling

C[S+](C)[O-] [DMSO]
% rhodamine positive (APE) (HL-60 cells [1]; 2 days): 34%
% rhodamine positive (APE) (HL-60 cells [1]; 4 days): 0%
time after which expression of APE started to fall (fewer rhodamine positive cells) (HL-60 cells [1]; HL-60, DMSO): 2 days
% fluorescein positive (TUNEL) (HL-60 cells [2]; 2 days): 2.7%
% fluorescein positive (TUNEL) (HL-60 cells [2]; 4 days): 2.3%
% fluorescein positive (TUNEL) (HL-60 cells [2]; 6 days): 7%
time after which statistically significant evidence of fragmented DNA became apparent (HL-60 cells [2]; HL-60, DMSO): 4 to 6 days
APE protein expression (Western blot) (HL-60 cells [3]; 10^-5 M RA or 1.25% DMSO, over 6 days, compared to ethanol treated controls): nearly undectable
APE transcript expression (Northern blot) (HL-60 cells [4]; granulocytic induction with 10^-5 M RA or 1.25% DMSO, 0-6 days): more rapid decrease to a lower level
APE protein expression (Western blot) (HL-60-bcl-2 cells [5]): continuous expression
APE mRNA expression (Northern blot) (HL-60-bcl-2 cells [6]): similarly maintained

CCCCCCCCCCCCCC(=O)O[C@@H]1[C@@H](C)[C@@]2(O)[C@@H](C=C(CO)C[C@]3(O)C(=O)C(C)=C[C@@H]23)[C@@H]2C(C)(C)[C@]12OC(C)=O [PMA]
APE protein expression (Western blot) (HL-60 cells [3]; 100 nM PMA, after two days exposure): decreased to a very low level
APE transcript expression (Northern blot) (HL-60 cells [4]; 100 nM PMA): Decreased expression
APE protein expression (Western blot) (HL-60-bcl-2 cells [5]): continuous expression
APE mRNA expression (Northern blot) (HL-60-bcl-2 cells [6]): continuous expression

CC1=C(/C=C/C(C)=C/C=C/C(C)=C/C(=O)O)C(C)(C)CCC1 [RA, Retinoic Acid]
NBT (+), percentage of cells containing blue-black formazan deposits (HL-60 cells [7]; [10]): >90%
CD11b (+), relative mean fluorescence (HL-60 cells [7]; [11]): 105.4 U
NBT (+), percentage of cells containing blue-black formazan deposits (HL-60-bcl-2 cells [8]; [10]): >90%
CD11b (+), relative mean fluorescence (HL-60-bcl-2 cells [8]; [11]): 107.9 U
survival of mature granulocytes (HL-60-bcl-2 cells [9]): up to 40 days

Source: patent publication US6406917B1, “Methods and compositions for the use of apurinic/apyrimidinic endonucleases” (Advanced Research And Technology Institute, priority 1996, dated 2002)
